According to patent US8399420B2, “Azacytidine analogues and uses thereof” (Mount Sanai School of Medicine, priority 2007, dated 2013):

How the values were obtained:
[1] = test system: Hela mutant cervix carcinoma cells; test: Cytotoxic activity with or without nucleoside transport inhibitor dipyridamole, MTT assay; type: cell-based; settings: dipyridamole 10 μM
Protocol: Dipyridamole was used as an inhibitor of the equilibrative nucleoside transporters hENT1 and hENT2. The cells were seeded in 96-well plates with 5×10^3 cells per well, in RPMI 1640 medium with 2 mM glutamine and 10% FBS. The cells were pre-incubated for 24 hours. Dipyridamole (10 μM) was added to the cells 30 minutes prior to the addition of the test compounds. The test compounds were dissolved in DMSO and further diluted in medium just prior to use. 6 wells were used per test concentration. The cells were incubated with test compound for 72 hours. 20 μl of freshly prepared MTT solution was added to each well and incubated for 4 hours.

[2] = test system: MT-3/ADR resistant breast carcinoma; test: Cytotoxicity, MTT assay, adriablastin resistant cell line MT-3/ADR; type: cell-based; settings: concentration range tested up to 100 μM
Protocol: The cells were seeded in 96-well plates with 5×10^3 cells per well, in RPMI 1640 medium with 2 mM glutamine and 10% FBS. The cells were incubated for 24 hours. The test compounds were dissolved in DMSO and further diluted in medium just prior to use. 6 wells were used per test concentration. The cells were incubated with test compound for 24 hours. 20 μl of freshly prepared MTT solution was added to each well and incubated for 4 hours.

Nc1ncn([C@@H]2O[C@H](CO)[C@@H](O)[C@H]2O)c(=O)n1 [Aza-C, 5-azacytidine]
reduction of activity by addition of dipyridamole [1]: 3 fold | activity in the MT-3/ADR resistant cell line [2]: No activity was observed
